This is an account of results in patent publication US20230218710A1, “METHOD OF TREATING CORONAVIRUS INFECTIONS” (priority 2020, published 2023).

Series [1] is described as follows: in vitro. Conditions: human, pooled human plasma.
Experimental: The metabolic stability of the peptides can be assessed in vitro by incubation in plasma and determination of the amount of peptide remaining over time. Peptides (50 μM) were incubated in pooled plasma from mice, monkeys, and humans at 37° C. Samples were removed at intervals up to 3 hours and immediately analyzed for the concentration of intact peptide by LC/MS/MS. The percent of peptide remaining in plasma at each time point was calculated relative to the initial peak area.
Series [2] has as its target T1, Apelin Receptor (APJ) (Homo sapiens, UniProt P35414).
T1 construct: host or cells: CHO-K1 AGTRL1 Gi cells
T1 sequence (P35414 1-380): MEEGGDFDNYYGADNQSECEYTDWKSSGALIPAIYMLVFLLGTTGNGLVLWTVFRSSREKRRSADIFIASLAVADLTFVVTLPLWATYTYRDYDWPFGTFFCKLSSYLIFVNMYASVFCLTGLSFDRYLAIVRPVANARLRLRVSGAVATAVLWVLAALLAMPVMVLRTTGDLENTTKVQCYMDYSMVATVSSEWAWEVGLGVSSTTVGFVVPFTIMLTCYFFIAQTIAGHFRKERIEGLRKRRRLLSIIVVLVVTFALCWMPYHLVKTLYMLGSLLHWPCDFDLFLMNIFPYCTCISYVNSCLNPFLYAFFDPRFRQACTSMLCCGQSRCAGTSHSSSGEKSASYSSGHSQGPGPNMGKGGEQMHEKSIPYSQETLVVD
The series is described as follows: cell-based. Particulars: CHO-K1, 0.5 h, read-out: Percent of Pyr-Apelin-13 Control Activity. On the procedure:
Peptides were initially prepared as 30 mM stock in DMSO and diluted to 3 mM in H2O or directly as 3 mM stock in H2O; used at a final concentration of 10 μM (0-0.1% DMSO).

Series [3] deals with human APJ (Homo sapiens, UniProt P35414). The experiment in a line: cell-based. Particulars: CHO-K1, 1.5 h, read-out: Percent of Apelin-13 Control Activity. On the procedure:
The effect of the peptides on activation of Apelin Receptor (APJ) can be assessed using an assay to monitor β-Arrestin recruitment in cultured cells overexpressing APJ such as CHO-K1, derived from Chinese hamster ovary. β-Arrestin recruitment assays were performed by Eurofins-DiscoverX (Fremont, Calif.) using CHO-K1 AGTRL1 β-Arrestin cell line (co-expressing ProLink tagged human APJ and Enzyme Acceptor tagged β-Arrestin) and PathHunter detection kit. Peptides were initially prepared either as 10 mM stock in DMSO and used at a final concentration of 10 μM (0.1% DMSO). CHO-K1 AGTRL1 β-Arrestin cells were seed onto 384-well plates in standard medium. […] Following 90 min. incubation at 37° C., β-Arrestin recruitment in response to various treatments was quantified using a chemiluminescent complementation reporter assay to measure association of tagged human APJ (ProLink tag) and tagged β-Arrestin (Enzyme Acceptor tag).

Series [4] concerns LPS-induced acute lung injury mouse model. The experiment in a line: LPS-induced acute lung injury model in mouse (Example 6). The class given is in vivo, mice. Conditions: histopathology, 24 h after LPS, 5 mg/kg i.p. The procedure: The effect of the peptides of the current invention on acute lung injury can be assessed in an LPS-induced acute lung injury mouse model by monitoring outcomes such as lung weight, fluid accumulation, cytokine secretion in blood or bronchoalveolar lavage fluid (BALF), neutrophil infiltration into lung tissues, and assessment of acute lung injury score by histopathology. Acute lung injury was induced in male C57BL/6 mice (6 to 8 weeks old) by intratracheal administration of 40 μL lipopolysaccharide (LPS) (Sigma Aldrich, St. Louis, Mo.) in PBS at 5 mg/kg. Control animals received intratracheal PBS alone. […] Treatments were administered 1 h prior to LPS for animals designated for sacrifice at 4 h after LPS, or at both 1 h prior to and 6 h after LPS for animals designated for sacrifice at 24 h after LPS. At 4 or 24 hours post LPS administration, tissues were harvested. Lungs were weighed, flushed with Hanks Buffer to provide bronchoalveolar lavage fluid (BALF). Lungs were fixed in 10% neutral buffered formalin (NBF) for histopathology. Tissue slides were stained with hematoxylin and eosin (H&E) and evaluated and scored with light microscopy of 5 representative microscopic fields (100× magnification) scoring on a 0-5 scale using standard methods (Matute-Bello G et al 2011. An Official American Thoracic Society Workshop Report: Features and Measurements of Experimental Acute Lung Injury in Animals. Am J Respir Cell Mol Biol 44:725-38). The average score for five fields was calculated for each animal. Levels of pro-inflammatory cytokines in BALF were determined using a meso scale discovery (MSD) system. Data for test peptides were compared to the vehicle control group. Lung weights were normalized to body weight.

Square brackets hold non-standard residues; d marks the D form. Peptide text beside a SMILES is read from it.

human APJ, sequence (P32121 whole entry partner, one chain of several): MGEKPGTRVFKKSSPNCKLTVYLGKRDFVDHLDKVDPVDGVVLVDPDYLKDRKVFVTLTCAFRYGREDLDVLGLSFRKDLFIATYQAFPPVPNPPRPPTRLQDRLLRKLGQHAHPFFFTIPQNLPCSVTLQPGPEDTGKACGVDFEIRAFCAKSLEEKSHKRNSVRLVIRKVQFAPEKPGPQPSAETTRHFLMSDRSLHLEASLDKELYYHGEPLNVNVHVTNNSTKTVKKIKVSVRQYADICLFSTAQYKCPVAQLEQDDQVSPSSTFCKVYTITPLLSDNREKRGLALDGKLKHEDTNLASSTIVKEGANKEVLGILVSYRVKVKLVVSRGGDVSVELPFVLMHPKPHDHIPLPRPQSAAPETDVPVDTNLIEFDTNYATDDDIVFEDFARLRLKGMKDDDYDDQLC

`CSCC[C@H](NC(=O)CNC(=O)[C@H](CCSC)NC(=O)[C@H](CCSC)NC(=O)[C@H](CCCNC(=N)N)NC(=O)[C@H](CCCNC(=N)N)NC(=O)[C@@H](N)CCSC)C(=O)N[C@H](C(=O)N[C@@H](Cc1ccccc1)C(=O)N[C@@H](CCC(N)=O)C(=O)N[C@@H](CS)C(=O)N[C@@H](CC(C)C)C(=O)N[C@@H](CS)C(=O)NCC(=O)N[C@@H](CC(C)C)C(=O)O)C(C)C` [compound 7] returned an amount remaining at 0.5 h, 50 μM in series [1] of 52.4%.

On to `CC[C@H](C)[C@H](NC(=O)[C@H](CCCNC(=N)N)NC(=O)[C@@H](N)CCCNC(=N)N)C(=O)N[C@H](C(=O)N[C@H](C)C(=O)N[C@H](C(=O)N[C@H](C(=O)N[C@@H](Cc1ccccc1)C(=O)N[C@@H](CCC(N)=O)C(=O)N[C@@H](CS)C(=O)N[C@@H](CC(C)C)C(=O)N[C@@H](CS)C(=O)N[C@H](C)C(=O)N[C@@H](CC(C)C)C(=O)O)C(C)C)[C@@H](C)CC)[C@@H](C)CC` [compound 9] (H-RRII[dA]IVFQCLC[dA]L-OH), for which, in series [1], the share remaining at 0.5 h, 50 μM was determined as 92.5%.

As for `COCCOCCOCCOCCOCCOCCOCCOCCOCCOCCOCCOCCC(=O)N[C@@H](CCCCN)C(=O)N[C@@H](CCCNC(=N)N)C(=O)N[C@@H](CCCNC(=N)N)C(=O)N[C@@H](CCSC)C(=O)N[C@@H](CCSC)C(=O)NCC(=O)N[C@@H](CCSC)C(=O)N[C@H](C(=O)N[C@@H](Cc1ccccc1)C(=O)N[C@@H](CCC(N)=O)C(=O)N[C@@H](CO)C(=O)N[C@@H](CC(C)C)C(=O)N[C@@H](CS)C(=O)NCC(=O)N[C@H](C)C(=O)O)C(C)C` [compound 36], the Emax at 10 µM in series [2] was 101%; in series [3] it was 63%.

As for `COCCOCCOCCOCCOCCOCCOCCOCCOCCOCCOCCOCCC(=O)N[C@@H](CCCCN)C(=O)N[C@@H](CCCNC(=N)N)C(=O)N[C@@H](CCCNC(=N)N)C(=O)N[C@@H](CC(C)C)C(=O)N[C@@H](CC(C)C)C(=O)NCC(=O)N[C@@H](CC(C)C)C(=O)N[C@H](C(=O)N[C@@H](Cc1ccccc1)C(=O)N[C@@H](CCC(N)=O)C(=O)N[C@@H](CO)C(=O)N[C@@H](CC(C)C)C(=O)N[C@@H](CS)C(=O)NCC(=O)N[C@H](C)C(=O)O)C(C)C` [compound 37], the values for the Emax at 10 µM in series [2] and in series [3] were 53% and 12%, respectively.

On to `CSCC[C@H](NC(=O)CNC(=O)[C@H](CCSC)NC(=O)[C@@H](N)CCSC)C(=O)N[C@H](C(=O)N[C@@H](Cc1ccccc1)C(=O)O)C(C)C` [compound 45] (H-MMGMVF-OH), for which, in series [1], the share remaining at 0.5 h, 50 μM was 90.8%.

On to `CSCC[C@H](NC(=O)CNC(=O)[C@H](CCSC)NC(=O)[C@@H](N)CCSC)C(=O)N[C@H](C(=O)N[C@@H](Cc1ccccc1)C(=O)N[C@@H](CCC(N)=O)C(=O)O)C(C)C` [compound 46] (H-MMGMVFQ-OH), for which, in series [1], the fraction remaining at 0.5 h, 50 μM is 100%.

For the molecule `CSCC[C@H](NC(=O)CNC(=O)[C@H](CCSC)NC(=O)[C@@H](N)CCSC)C(=O)N[C@H](C(=O)N[C@@H](Cc1ccccc1)C(=O)N[C@@H](CCC(N)=O)C(=O)N[C@@H](CO)C(=O)O)C(C)C` [compound 47] (H-MMGMVFQS-OH), the share remaining at 0.5 h, 50 μM in series [1] worked out at 86.1%.

On to `CSCC[C@H](NC(=O)CNC(=O)[C@H](CCSC)NC(=O)[C@@H](N)CCSC)C(=O)N[C@H](C(=O)N[C@@H](Cc1ccccc1)C(=O)N[C@@H](CCC(N)=O)C(=O)N[C@@H](CO)C(=O)N[C@@H](CC(C)C)C(=O)O)C(C)C` [compound 48] (H-MMGMVFQSL-OH), for which, in series [1], the fraction remaining at 0.5 h, 50 μM worked out at 92%.

As for `CSCC[C@H](NC(=O)CNC(=O)[C@H](CCSC)NC(=O)[C@H](CCSC)NC(=O)[C@@H](N)CCCNC(=N)N)C(=O)N[C@H](C(=O)N[C@@H](Cc1ccccc1)C(=O)O)C(C)C` [compound 50] (H-RMMGMVF-OH), in series [1], the share remaining at 0.5 h, 50 μM came out at 87.7%.

In the case of `CSCC[C@H](NC(=O)CNC(=O)[C@H](CCSC)NC(=O)[C@H](CCSC)NC(=O)[C@@H](N)CCCNC(=N)N)C(=O)N[C@H](C(=O)N[C@@H](Cc1ccccc1)C(=O)N[C@@H](CCC(N)=O)C(=O)O)C(C)C` [compound 51] (H-RMMGMVFQ-OH), the amount remaining at 0.5 h, 50 μM in series [1] was found to be 100%.

On to `CSCC[C@H](NC(=O)CNC(=O)[C@H](CCSC)NC(=O)[C@H](CCSC)NC(=O)[C@@H](N)CCCNC(=N)N)C(=O)N[C@H](C(=O)N[C@@H](Cc1ccccc1)C(=O)N[C@@H](CCC(N)=O)C(=O)N[C@@H](CO)C(=O)O)C(C)C` [compound 52] (H-RMMGMVFQS-OH), for which, in series [1], the fraction remaining at 0.5 h, 50 μM was determined as 97.5%.

`CSCC[C@H](NC(=O)CNC(=O)[C@H](CCSC)NC(=O)[C@H](CCSC)NC(=O)[C@@H](N)CCCNC(=N)N)C(=O)N[C@H](C(=O)N[C@@H](Cc1ccccc1)C(=O)N[C@@H](CCC(N)=O)C(=O)N[C@@H](CO)C(=O)N[C@@H](CC(C)C)C(=O)O)C(C)C` [compound 53] (H-RMMGMVFQSL-OH) showed an amount remaining at 0.5 h, 50 μM in series [1] of 85.8%.

For `CSCC[C@H](NC(=O)CNC(=O)[C@H](CCSC)NC(=O)[C@H](CCSC)NC(=O)[C@H](CCCNC(=N)N)NC(=O)[C@@H](N)CCCNC(=N)N)C(=O)O` [compound 55] (H-RRMMGM-OH), the amount remaining at 0.5 h, 50 μM in series [1] turned out to be 100%.

`CSCC[C@H](NC(=O)CNC(=O)[C@H](CCSC)NC(=O)[C@H](CCSC)NC(=O)[C@H](CCCNC(=N)N)NC(=O)[C@@H](N)CCCNC(=N)N)C(=O)N[C@H](C(=O)O)C(C)C` [compound 56] (H-RRMMGMV-OH) registered a share remaining at 0.5 h, 50 μM in series [1] of 92.1%.

With `CSCC[C@H](NC(=O)CNC(=O)[C@H](CCSC)NC(=O)[C@H](CCSC)NC(=O)[C@H](CCCNC(=N)N)NC(=O)[C@@H](N)CCCNC(=N)N)C(=O)N[C@H](C(=O)N[C@@H](Cc1ccccc1)C(=O)O)C(C)C` [compound 57] (H-RRMMGMVF-OH), the fraction remaining at 0.5 h, 50 μM in series [1] was found to be 91.9%.

`CSCC[C@H](NC(=O)CNC(=O)[C@H](CCSC)NC(=O)[C@H](CCSC)NC(=O)[C@H](CCCNC(=N)N)NC(=O)[C@@H](N)CCCNC(=N)N)C(=O)N[C@H](C(=O)N[C@@H](Cc1ccccc1)C(=O)N[C@@H](CCC(N)=O)C(=O)O)C(C)C` [compound 58] (H-RRMMGMVFQ-OH) gave a share remaining at 0.5 h, 50 μM in series [1] of 69.5%.

For `CSCC[C@H](NC(=O)CNC(=O)[C@H](CCSC)NC(=O)[C@H](CCSC)NC(=O)[C@H](CCCNC(=N)N)NC(=O)[C@@H](N)CCCNC(=N)N)C(=O)N[C@H](C(=O)N[C@@H](Cc1ccccc1)C(=O)N[C@@H](CCC(N)=O)C(=O)N[C@@H](CO)C(=O)O)C(C)C` [compound 59] (H-RRMMGMVFQS-OH), the fraction remaining at 0.5 h, 50 μM in series [1] came out at 62.9%.

With `CSCC[C@H](NC(=O)CNC(=O)[C@H](CCSC)NC(=O)[C@H](CCSC)NC(=O)[C@H](CCCNC(=N)N)NC(=O)[C@@H](N)CCCNC(=N)N)C(=O)N[C@H](C(=O)N[C@@H](Cc1ccccc1)C(=O)N[C@@H](CCC(N)=O)C(=O)N[C@@H](CO)C(=O)N[C@@H](CC(C)C)C(=O)O)C(C)C` [compound 60] (H-RRMMGMVFQSL-OH), in series [1], the fraction remaining at 0.5 h, 50 μM was found to be 95%.

As for `CSCC[C@H](NC(=O)CNC(=O)[C@H](CCSC)NC(=O)[C@H](CCSC)NC(=O)[C@H](CCCNC(=N)N)NC(=O)[C@@H](N)CCCNC(=N)N)C(=O)N[C@H](C(=O)N[C@@H](Cc1ccccc1)C(=O)N[C@@H](CCC(N)=O)C(=O)N[C@@H](CO)C(=O)N[C@@H](CC(C)C)C(=O)N[C@@H](CS)C(=O)NCC(=O)N[C@H](C)C(N)=O)C(C)C` [compound 62], the amount remaining at 0.5 h, 50 μM in series [1] is 30.3%.

In the case of “(PEG12)KRRMMGMVFQSLCG(dA) (KRRMMGMVFQSLCGA; N-terminal PEG12; C-terminal D-alanine; (1)..(1) PEG12; (15)..(15) D-Ala) [SEQ ID NO: 36]”, in series [4] (0-5 scale), the “Mean (SEM) Alveolar Neutrophil Infiltration Score” value is given as 1.98 (0.18) and the “Mean (SEM) Interstitial Neutrophil Infiltration Score” value was 1.60 (0.14). The “Mean (SEM) Composite Lung Injury Score” value in series [4] is on record as 3.65 (0.28).
